Measurements reported in publication PMC4835877, “HM71224, a novel Bruton’s tyrosine kinase inhibitor, suppresses B cell and monocyte activation and ameliorates arthritis in a mouse model: a potential drug for rheumatoid arthritis” (Arthritis Research & Therapy, 2016).

What was measured:
[1] = system: DBA/1 J mice with collagen-induced arthritis; experiment: Collagen-induced arthritis (CIA) model; assay type: in vivo, mouse; conditions: dexamethasone 0.2 mg/kg once a day
Experimental: All animal experimental protocols were approved by the animal care and use committee of the Hanmi Research Center, and performed in accordance with approved guidelines. Male DBA/1 J mice (9 weeks old; n = 7 per group) were immunized with an emulsion of Complete Freund’s Adjuvant and bovine type II collagen (CII) (total volume, 0.07 mL) via intradermal injection at the base of the tail (day 0). Three weeks later, the mice received a booster immunization comprising bovine CII emulsified in Incomplete Freund’s Adjuvant. […] The arthritis score and body weight were measured three times per week for 2 weeks after administration of the drugs (Additional file 1: Figure S1). The arthritis score was determined by grading each paw from 0 to 4 based on erythema, swelling, and flexion of the joint and was expressed as the sum of the scores of all four paws. Serum levels of IL-6 were measured by Luminex analysis in a bead-based immunoassay (EMD Millipore Corporation). Serum levels of anti-CII and total IgG were measured by ELISA (Chondrex, Seattle, WA, USA; Bethyl Laboratories, Montgomery, TX, USA).
Micro-CT of the hind limbs was performed using a Siemens Inveon Micro-CT/PET scanner (Siemens Medical Solutions, Knoxville, TN, USA).
The hind legs of each mouse were fixed with 10 % formalin, decalcified in 5 % formic acid, and embedded in paraffin. Sections were then cut and stained with hematoxylin and eosin (H&E). The bone erosion index was scored from 0 to 4 according to the following criteria: 0 = no erosion, 1 = mild (focal subchondral erosion), 2 = moderate (multiple subchondral erosions), 3 = high (as above and focal erosion of talus), and 4 = maximum (multiple erosions of tarsal and metatarsal bones).
Figure S1. Experiment design of collagen induced arthritis. Untreated DBA/1J mice (n=7) served as healthy controls (Ctrl). DBA/1J mice (n= 56) were immunized Day 0 and day 21. On day 10 after boosting (i.e. day 31), the induction of CIA was evaluated. […] Immunized mice (n=42) were divided into 6 groups (n=7 in each group). […] CIA, collagen induced arthritis.

CD3+ T cells = experiment: T cell signaling, phospho-flow of CD3/CD28-activated PBMCs; assay type: cell-based, human; conditions: CD3- and CD28-conjugated beads
Experimental: For phospho-flow, B cells were activated by crosslinking their BCRs with anti-human IgM antibodies (10 μg/mL; BD Biosciences) for 10 minutes at 37 °C. Cells were then fixed with 2 % paraformaldehyde at 37 °C for 12 minutes, permeabilized, and stained with anti-CD3-FITC (SK7; BD Biosciences), anti-CD20-PerCP-Cy5.5 (H1; BD Biosciences), anti-pBtk (Y223)-Alexa647 (N35-86; BD Biosciences), anti-pPLCγ2 (Y759)-Alexa647 (K86-689.37; BD Biosciences), anti-pSTAT1 (Y701)-Alexa647 (4a; BD Biosciences), anti-pSTAT3 (Y705)-Alexa647 (4/P-STAT3; BD Biosciences), anti-pSTAT5 (Y694)-Alexa647 (47; BD Biosciences), and anti-pERK1/2 (T202/204)-Alexa647 (20A; BD Biosciences) antibodies. The cells were then washed and analyzed on an LSR II flow cytometer (BD Biosciences). Data were analyzed using FlowJo software, version 8.8 (Treestar, Ashland, OR, USA).
Figure S5. Effect of HM71224 on human T cell signaling. […] The expression level of p-STAT1, p-STAT3, p-STAT5, and p-ERK1/2 by CD3+ T cells was then measured by phospho-flow cytometry.

SMILES	AS, arthritis score ([1]; D0)	Wt, weight ([1]; D0)	AS, arthritis score ([1]; D1)	AS, arthritis score ([1]; D4)	AS, arthritis score ([1]; D6)	AS, arthritis score ([1]; D8)	AS, arthritis score ([1]; D12)	AS, arthritis score ([1]; D13)	AS, arthritis score ([1]; D15)	T cell receptor signaling (p-STAT1, p-STAT3 and p-STAT5) (CD3+ T cells)	p-ERK1/2 in CD3+ T cells (CD3+ T cells)
C[C@@H]1C[C@H]2[C@@H]3CCC4=CC(=O)C=C[C@]4(C)[C@@]3(F)[C@@H](O)C[C@]2(C)[C@@]1(O)C(=O)CO [Dexa, dexamethasone, reference compound]	1.1±0.5	22.9±0.4 gram	0.9±0.5	0.4±0.2	0.3±0.2	0.3±0.2	0.3±0.2	0.4±0.3	0.3±0.2	–	–
C=CC(=O)N1CCC[C@@H](n2nc(-c3ccc(Oc4ccccc4)cc3)c3c(N)ncnc32)C1 [PCI-32765, Ibrutinib]	–	–	–	–	–	–	–	–	–	not affected	inhibited
C[C@@H]1CCN(C(=O)CC#N)C[C@@H]1N(C)c1ncnc2[nH]ccc12 [Tofacitinib]	–	–	–	–	–	–	–	–	–	significantly suppressed	–
